In patent publication US8278316B2, “Aza pyridone analogs useful as melanin concentrating hormone receptor-1 antagonists” (Bristol-Myers Squibb Company, priority 2009, dated 2012):

target: T1, human melanin concentrating hormone receptor (MCHR1) (Homo sapiens, UniProt Q99705, A5T/E4Q); test: Radioligand binding assay for assessment of MCHR1 activity; details: membranes from HEK-293 cells expressing mutated (E4Q, AST) hMCHR1; competition with 0.06-0.1 nM [Phe13,[125I]Tyr19]-MCH, 90 min
T1 construct: expressed in transfected cells; host or cells: HEK-293 (stably transfected), membranes
T1 sequence (Q99705 whole entry E4Q/A5T): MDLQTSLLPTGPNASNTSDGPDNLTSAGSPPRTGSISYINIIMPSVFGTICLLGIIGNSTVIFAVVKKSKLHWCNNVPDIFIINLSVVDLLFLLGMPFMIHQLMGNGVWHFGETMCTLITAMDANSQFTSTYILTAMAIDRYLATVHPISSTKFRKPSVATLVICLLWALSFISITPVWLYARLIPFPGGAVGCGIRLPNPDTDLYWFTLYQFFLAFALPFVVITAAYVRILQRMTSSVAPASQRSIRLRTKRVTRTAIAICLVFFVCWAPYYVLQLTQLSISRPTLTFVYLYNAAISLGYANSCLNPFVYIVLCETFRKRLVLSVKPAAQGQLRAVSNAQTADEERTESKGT
Experimental: Compounds of Formula I were initially characterized in an in vitro binding assay to determine their Ki or ability to antagonize binding of a peptide agonist to the human melanin concentrating hormone receptor (MCHR1).
Membranes from stably transfected HEK-293 cells expressing a mutated (E4Q, AST) hMCHR1 receptor were prepared by dounce homogenization and differential centrifugation. Binding experiments were carried out with 0.5-1.0 ug of membrane protein incubated in a total of 0.2 ml in 25 mM HEPES (pH 7.4) with 10 mM MgCl2, 2 mM EGTA, and 0.1% BSA (Binding Buffer) for 90 min. For competition binding assays, reactions were carried out in the presence of with 0.06-0.1 nM [Phe^13, [^125I]Tyr^19]-MCH and increasing concentrations of unlabeled test molecules. Reactions were terminated by rapid vacuum filtration over 96 well-GFC Unifilter plates pre-coated with 0.075 ml binding buffer containing 1% BSA, and washed 3 times with 0.4 ml of Phospho-buffered Saline (pH 7.4) containing 0.01% TX-100. Filters were dried; 0.05 ml microscint 20 was added to each well and radioactivity was subsequently quantified by scintillation counting on a TOPCOUNT® microplate scintillation counter (Packard). Inhibitory constants were determined by nonlinear least squares analysis using a four parameter logistic equation.

SMILES	Ki [nM]
COc1cc(-n2ccc(SCc3ccc(Cl)cc3)nc2=O)ccc1OCC(C)(C)O [Example A1, 4-(4-Chlorobenzylthio)-1-(4-(2-hydroxy-2-methylpropoxy)-3-methoxyphenyl)pyrimidin-2(1H)-one]	41
COc1cc(-n2ccc(OCc3ccc(Cl)c(Cl)c3)nc2=O)ccc1OCC(C)(C)O [Example A13]	1150
Cc1cc(-n2ccc(NCc3ccc(Cl)cc3)nc2=O)ccc1OCC(C)(C)O [Example A17]	458
COc1cc(-n2ccc(C#Cc3ccccc3)nc2=O)ccc1OCC(C)(C)O [Example B1, 1-(4-(2-Hydroxy-2-methylpropoxy)-3-methoxyphenyl)-4-(phenylethynyl)pyrimidin-2(1H)-one]	39
COc1cc(-n2ccc(COc3ccccc3F)nc2=O)ccc1OCC(C)(C)O [Example C5]	2200
COc1cc(-n2ncc(C#Cc3ccccc3)cc2=O)ccc1OCC(O)C1CC1 (stereo not drawn) [Example D2]	37
COc1cc(-n2ncc(CSc3ccc(Cl)cc3)cc2=O)ccc1OCC(C)(C)O [Example E1, 5-((4-Chlorophenylthio)methyl)-2-(4-(2-hydroxy-2-methylpropoxy)-3-methoxyphenyl)pyridazin-3(2H)-one]	1060
COc1cc(-n2cnc(CSc3ccc(F)cc3)cc2=O)ccc1OCC(C)(C)O [Example G3]	378
COc1cc(-n2cnc(OCc3ccc(Cl)cc3)cc2=O)ccc1OCC(C)(C)O [Example H1, 6-(4-Chlorobenzyloxy)-3-(4-(2-hydroxy-2-methylpropoxy)-3-methoxyphenyl)pyrimidin-4(3H)-one]	35
COc1cc(-n2cnc(SCc3ccc(Cl)cc3)cc2=O)ccc1OCC(C)(C)O [Example H2]	7
COc1cc(-n2cnc(SCc3ccc(Cl)cc3)cc2=O)ccc1OCC(O)C1CC1 (stereo not drawn) [Example H6]	11
COc1cc(-n2cnc(/C=C/c3ccc(Cl)cc3)cc2=O)ccc1OCC(C)(C)O [Example J1, (E)-6-(4-Chlorostyryl)-3-(4-(2-hydroxy-2-methylpropoxy)-3-methoxyphenyl)pyrimidin-4(3H)-one]	23
